Test systems include RPMI-8226; MCF7; SNB-75; NCI-H522; MOLT-4; HCT-116; UACC-257; OVCAR-4; SF-295; NCI/ADR-RES; OVCAR-5; SK-MEL-2; SK-MEL-28; U-251; OVCAR-8; HCC 2998; MDA-MB-435; HL-60; COLO 205; DU-145.
Common to all, as to assay: inhibition of tumour cell growth, NCI panel, 48 h

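Briefly, cells in 96-well plates were exposed to five compound concentrations for 48 h, and endpoints were estimated by linear interpolation. GI50 = concentration required for 50% inhibition of growth.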 Active and inactive are the calls of the source. Cut-off read from the data, not from the text of the source: active = GI50 up to about 1.1 µM and inactive = higher. Some results are limits rather than exact numbers.

As for `CN1CC(c2ccccc2)=CC2=C1C=CC(=N)/C2=N\N`, the GI50 with RPMI-8226 was > 100 µM (inactive); with MCF7, > 100 µM (inactive); in the test on SNB-75, 20.9 µM (inactive); in the test on NCI-H522 it was > 100 µM (inactive); in the test on MOLT-4, > 100 µM (inactive); in the test with HCT-116 it was > 100 µM (inactive). In addition, the GI50 in the test on UACC-257 is > 100 µM (inactive); with OVCAR-4, > 100 µM (inactive); with SF-295, 75.3 µM (inactive); with NCI/ADR-RES, 47.1 µM (inactive); in the test on OVCAR-5, > 100 µM (inactive); in the test on SK-MEL-2, 48.2 µM (inactive). Moreover, the GI50 in the test on SK-MEL-28, in the test with U-251, in the test with OVCAR-8, in the test on HCC 2998 and with MDA-MB-435 was > 100 µM (inactive) in each case.

On to `O=c1[nH]cnc2cccc(Cl)c12`, for which the GI50 is > 100 µM (inactive) in the test on MCF7; 65.2 µM (inactive) in the test with SNB-75; > 100 µM (inactive) with NCI-H522; > 100 µM (inactive) in the test on MOLT-4; > 100 µM (inactive) in the test on HL-60; > 100 µM (inactive) in the test with HCT-116. Moreover, the GI50 in the test with UACC-257, in the test on OVCAR-4, with SF-295, with NCI/ADR-RES, in the test with OVCAR-5 and in the test with SK-MEL-2 was > 100 µM (inactive) each time. Moreover, the GI50 in the test on SK-MEL-28, with U-251, in the test with OVCAR-8, with COLO 205, with HCC 2998 and in the test with DU-145 was > 100 µM (inactive) in each case.

Regarding `CCOC(=O)c1c(NNc2ccccc2)nc2ccccc2c1-c1ccccc1`, the GI50 with RPMI-8226 is 11.9 µM (inactive); in the test with SNB-75, 36.8 µM (inactive); in the test with NCI-H522, 30.1 µM (inactive); in the test on MOLT-4 it was 12.8 µM (inactive); in the test on HL-60 it was 15.8 µM (inactive); with HCT-116, 21.8 µM (inactive). In addition, the GI50 in the test on UACC-257 is 29.7 µM (inactive); in the test on OVCAR-4 it was 37.5 µM (inactive); in the test with SF-295, 42.6 µM (inactive); with OVCAR-5, 56.1 µM (inactive); in the test with SK-MEL-2, 17.2 µM (inactive); in the test on SK-MEL-28 it was 34 µM (inactive). The GI50 in the test with U-251 is 34.4 µM (inactive); in the test on OVCAR-8, 20.4 µM (inactive); in the test on COLO 205, 30 µM (inactive); in the test with HCC 2998, 55 µM (inactive).

On to `N=c1nc(N)nc(N)n1-c1ccc(S(N)(=O)=O)cc1`, for which the GI50 with NCI-H522, in the test with MOLT-4, in the test on HL-60, in the test with HCT-116, in the test with UACC-257 and with OVCAR-4 was > 100 µM (inactive) in each case. Moreover, the GI50 in the test with SF-295, with NCI/ADR-RES, in the test on OVCAR-5, in the test with SK-MEL-2, in the test on SK-MEL-28 and in the test on U-251 was > 100 µM (inactive) in each case. Also, the GI50 in the test with OVCAR-8, in the test on MDA-MB-435 and with DU-145 was > 100 µM (inactive) in each case.

With `CCSC1=N/C(=C\c2ccccc2O)C(Nc2ccc(C)cc2)=N1`, the GI50 with RPMI-8226 was > 100 µM (inactive); in the test on SNB-75, 46.1 µM (inactive); in the test on NCI-H522, 20.4 µM (inactive); in the test with MOLT-4 it was 29.2 µM (inactive); in the test with HL-60 it was 39 µM (inactive); in the test with HCT-116, 39.1 µM (inactive). Moreover, the GI50 in the test on UACC-257 is 99.1 µM (inactive); in the test with SF-295 it was 34.4 µM (inactive); in the test with NCI/ADR-RES, 56 µM (inactive); in the test with OVCAR-5, > 100 µM (inactive); in the test on SK-MEL-2, 19.6 µM (inactive); with SK-MEL-28, 51.1 µM (inactive). The GI50 in the test with U-251 was 41.9 µM (inactive); with OVCAR-8, 80.4 µM (inactive); in the test with COLO 205, > 100 µM (inactive); in the test with MDA-MB-435, 34.4 µM (inactive); with DU-145, 90.2 µM (inactive).

As to `CCO/C([O-])=C(\C(=O)c1ccccc1)[n+]1c(C)sc2ccccc21`, the GI50 with RPMI-8226 is 59 µM (inactive); with SNB-75, > 100 µM (inactive); in the test with NCI-H522, 81.3 µM (inactive); in the test with MOLT-4, > 100 µM (inactive); in the test on HL-60 it was 53.2 µM (inactive); with HCT-116, > 100 µM (inactive). The GI50 in the test with UACC-257 was 13.5 µM (inactive); in the test with OVCAR-4, 96.6 µM (inactive); with SF-295, 64.4 µM (inactive); with OVCAR-5, > 100 µM (inactive); in the test with SK-MEL-2, 58.3 µM (inactive); in the test with SK-MEL-28, > 100 µM (inactive). Further, the GI50 with U-251 is > 100 µM (inactive); in the test with OVCAR-8, > 100 µM (inactive); in the test with COLO 205 it was 83.6 µM (inactive); with HCC 2998, > 100 µM (inactive).

For `COC(=O)/C=C(\C)CC(O)/C=C(\C)CCC=C(C)C` (configuration not stated), the GI50 with MCF7 was 31.4 µM (inactive); in the test with SNB-75 it was 9.44 µM (inactive); in the test with MOLT-4 it was 18.7 µM (inactive); in the test on HL-60, 17.4 µM (inactive); in the test with HCT-116, 40.5 µM (inactive); with UACC-257 it was 47.4 µM (inactive). Besides, the GI50 in the test on OVCAR-4 is 44 µM (inactive); in the test on SF-295 it was 38.1 µM (inactive); in the test with NCI/ADR-RES it was 16.2 µM (inactive); with OVCAR-5, > 100 µM (inactive); with SK-MEL-2, 19.1 µM (inactive); with SK-MEL-28, 69 µM (inactive). For the same molecule, the GI50 with U-251 is 42.7 µM (inactive); with OVCAR-8, 22.3 µM (inactive); in the test with COLO 205, 41.2 µM (inactive); with HCC 2998, 27.9 µM (inactive).

As to `COC(=O)C(=O)C(C(=O)C=C(C)C)C(=O)C(=O)Nc1cccc(C(C)=O)c1` (configuration not stated), the GI50 with RPMI-8226, with SNB-75, with NCI-H522, with MOLT-4, in the test on HL-60 and with HCT-116 was > 100 µM (inactive) each time. Also, the GI50 with UACC-257, in the test on OVCAR-4, in the test with SF-295, with OVCAR-5, in the test on SK-MEL-2 and with SK-MEL-28 was > 100 µM (inactive) each time. Moreover, the GI50 with U-251, in the test with OVCAR-8, with COLO 205 and with HCC 2998 was > 100 µM (inactive) throughout.

As to `O=C1C=CC(S(=O)(=O)C2=C/C(=C/Nc3ccc(Cl)cc3)C(=O)C=C2)=C/C1=C/Nc1ccc(Cl)cc1`, the GI50 with RPMI-8226 is > 100 µM (inactive); in the test on SNB-75, 47.6 µM (inactive); with NCI-H522, > 100 µM (inactive); with MOLT-4 it was > 100 µM (inactive); with HL-60, > 100 µM (inactive); in the test with HCT-116 it was > 100 µM (inactive). Also, the GI50 in the test with UACC-257, in the test on OVCAR-4, with SF-295, in the test on OVCAR-5, with SK-MEL-2 and in the test on SK-MEL-28 was > 100 µM (inactive) in each case. In addition, the GI50 in the test on U-251, with OVCAR-8, in the test with COLO 205 and with HCC 2998 was > 100 µM (inactive) each time.

Consider `CC1(C)[C@@H]2CC[C@@]1(C)[C@@H]1O[C@@H](O[C@@H](CN)c3cc(Cl)c(OCc4ccccc4)c(OCc4ccccc4)c3)C[C@H]21`, for which the GI50 with RPMI-8226 was 0.0463 µM (active); in the test on MCF7, 0.134 µM (active); in the test with SNB-75, 0.163 µM (active); in the test on NCI-H522, 0.186 µM (active); with MOLT-4 it was 0.16 µM (active); with HL-60, 0.177 µM (active). Also, the GI50 in the test on HCT-116 was 0.15 µM (active); in the test on UACC-257, 0.175 µM (active); in the test on OVCAR-4, 0.162 µM (active); in the test with SF-295 it was 0.183 µM (active); in the test with OVCAR-5, 0.166 µM (active); with SK-MEL-2 it was 0.173 µM (active). Besides, the GI50 in the test with SK-MEL-28 was 0.19 µM (active); in the test on U-251, 0.158 µM (active); in the test on OVCAR-8 it was 0.189 µM (active); in the test on COLO 205, 0.11 µM (active); in the test on MDA-MB-435, 0.162 µM (active); with DU-145, 0.191 µM (active).

For `N#C/N=C(/N)NCc1ccccc1`, the GI50 in the test with RPMI-8226, with SNB-75, in the test on NCI-H522, in the test with MOLT-4, in the test on HL-60 and in the test with HCT-116 was > 100 µM (inactive) throughout. For the same molecule, the GI50 in the test on UACC-257, in the test with OVCAR-4, in the test with SF-295, in the test on OVCAR-5, with SK-MEL-2 and with SK-MEL-28 was > 100 µM (inactive) in each case. In addition, the GI50 with U-251 is > 100 µM (inactive); in the test with OVCAR-8, > 100 µM (inactive); in the test with COLO 205 it was > 100 µM (inactive); in the test with HCC 2998, 23.4 µM (inactive).

On to `COCN1COCN/C1=N\C#N`, for which the GI50 in the test on RPMI-8226, in the test with SNB-75, in the test on NCI-H522, with MOLT-4, in the test on HL-60 and in the test with HCT-116 was > 100 µM (inactive) throughout. The GI50 was > 100 µM (inactive) in the test on UACC-257; 75.5 µM (inactive) in the test with OVCAR-4; > 100 µM (inactive) with SF-295; > 100 µM (inactive) with OVCAR-5; > 100 µM (inactive) in the test with SK-MEL-2; > 100 µM (inactive) with SK-MEL-28. The GI50 with U-251 was > 100 µM (inactive); with OVCAR-8, > 100 µM (inactive); in the test on COLO 205, 41 µM (inactive); in the test with HCC 2998 it was > 100 µM (inactive).

These data come from ChEMBL document CHEMBL1201862, “PubChem BioAssay data set” (2004).
